# From patent US20150313892A1, “PHARMACEUTICAL COMPOSITIONS FOR TREATING PAIN ASSOCIATED WITH DYSMENORRHEA” (priority 2014, published 2015)
# pIC50, pKi: −log10 of the molar value. Read-outs that look alike come from different tables or passages of the source.
# Experiments:
# [1] = target: δ-opioid (Homo sapiens, UniProt P41143); details: read-out: Binding Constant Ki, δ-opioid; cited from earlier work
# [2] = in vivo, po; cited from earlier work
# [3] = test system: patients with diabetic neuropathy and fibromyalgia; assay: Pain relief in diabetic neuropathy and fibromyalgia patients; details: 400 mg per day, alone
# [4] = target: κ-opioid (Homo sapiens, UniProt P41145); details: read-out: Binding Constant Ki, κ-opioid; cited from earlier work
# [5] = target: NE reuptake (Homo sapiens, UniProt P23975)
# [6] = test system: patients with postherpetic neuralgia or painful diabetic neuropathy; details: oral, cited from earlier work
# [7] = test system: transient K^+ channels in hippocampal neurons; details: read-out: IC50, inhibition of transient K+ channels; cited from earlier work
# [8] = test system: patients with fibromyalgia; details: fibromyalgia trials, cited from earlier work
# [9] = test system: patients, pain score; details: cited from earlier work
# [10] = test system: patients with neuropathic pain associated with diabetic peripheral neuropathy; details: diabetic peripheral neuropathy trials; cited from earlier work
# [11] = test system: α or β adrenergic, muscarinic, histaminergic, and dopaminergic receptors; details: cited from earlier work
# [12] = test system: uptake of norepinephrine (NE), serotonin (5-HT) and dopamine; details: cited from earlier work
# [13] = target: NMDA; details: cited from earlier work
# [14] = target: 5-HT reuptake (Homo sapiens, UniProt P31645); details: read-out: Binding Constant Ki, 5-HT, cited from earlier work
# [15] = test system: cellular uptake of dopamine, noradrenaline, or serotonin; details: cited from earlier work
# [16] = cited from earlier work
# [17] = target: α2δ; details: read-out: α2δ Binding; cited from earlier work
# [18] = test system: chronic sciatic nerve constriction injury; details: chronic sciatic nerve constriction injury in rats; cited from earlier work
# [19] = target: μ-opioid (Homo sapiens, UniProt P35372); details: read-out: Binding Constant Ki, μ-opioid; cited from earlier work
# [20] = target: Sigma; details: read-out: Binding Constant Ki, Sigma; cited from earlier work
# [21] = test system: persons undergoing third molar surgery; details: cited from earlier work
# [22] = test system: postoperative patients; details: intravenous; 30-mg/kg bolus, 10 mg/kg/h infusion for 48 hours; cited from earlier work
# [23] = reuptake inhibition; read-out: Binding Constant Ki, NE; cited from earlier work
# [24] = read-out: Binding Constant Ki, NMDA
# [25] = read-out: Binding Constant Ki, NE; reuptake inhibition; cited from earlier work
# Sequence of δ-opioid (P41143 whole entry): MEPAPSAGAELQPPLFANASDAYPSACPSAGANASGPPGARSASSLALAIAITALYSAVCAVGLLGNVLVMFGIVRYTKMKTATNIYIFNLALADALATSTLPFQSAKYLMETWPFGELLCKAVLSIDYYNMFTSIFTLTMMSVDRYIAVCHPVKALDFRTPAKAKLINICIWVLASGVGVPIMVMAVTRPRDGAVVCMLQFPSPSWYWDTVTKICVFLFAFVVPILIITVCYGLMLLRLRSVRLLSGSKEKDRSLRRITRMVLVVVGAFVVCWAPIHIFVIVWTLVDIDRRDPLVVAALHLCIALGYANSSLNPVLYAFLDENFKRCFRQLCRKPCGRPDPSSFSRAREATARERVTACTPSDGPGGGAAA
# Sequence of κ-opioid (P41145 whole entry): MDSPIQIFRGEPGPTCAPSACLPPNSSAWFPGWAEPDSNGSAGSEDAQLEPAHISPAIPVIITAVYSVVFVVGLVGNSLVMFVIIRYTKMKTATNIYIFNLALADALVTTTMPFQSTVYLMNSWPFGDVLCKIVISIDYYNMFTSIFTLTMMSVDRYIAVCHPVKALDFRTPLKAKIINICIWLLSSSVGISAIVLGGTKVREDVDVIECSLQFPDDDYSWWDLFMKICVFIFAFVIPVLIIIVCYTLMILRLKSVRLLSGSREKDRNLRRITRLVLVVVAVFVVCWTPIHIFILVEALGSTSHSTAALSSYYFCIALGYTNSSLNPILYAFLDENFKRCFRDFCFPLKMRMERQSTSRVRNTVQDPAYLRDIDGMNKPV
# Sequence of NE reuptake (P23975 whole entry): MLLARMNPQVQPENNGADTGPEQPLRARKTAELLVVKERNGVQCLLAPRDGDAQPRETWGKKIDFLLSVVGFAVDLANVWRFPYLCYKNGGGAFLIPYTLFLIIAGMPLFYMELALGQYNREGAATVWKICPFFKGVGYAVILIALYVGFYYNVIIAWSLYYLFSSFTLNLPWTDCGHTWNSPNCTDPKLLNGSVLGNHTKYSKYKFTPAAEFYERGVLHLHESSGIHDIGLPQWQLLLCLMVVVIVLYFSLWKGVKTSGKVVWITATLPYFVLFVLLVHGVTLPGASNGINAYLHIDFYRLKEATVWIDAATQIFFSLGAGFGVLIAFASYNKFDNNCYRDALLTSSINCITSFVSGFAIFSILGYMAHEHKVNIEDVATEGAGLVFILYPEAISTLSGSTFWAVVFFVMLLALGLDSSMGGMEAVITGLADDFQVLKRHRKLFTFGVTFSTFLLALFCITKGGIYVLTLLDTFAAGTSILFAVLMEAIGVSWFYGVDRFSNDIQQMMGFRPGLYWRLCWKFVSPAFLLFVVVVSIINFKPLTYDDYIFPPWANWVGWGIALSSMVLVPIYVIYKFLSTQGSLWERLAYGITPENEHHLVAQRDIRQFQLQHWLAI
# Sequence of 5-HT reuptake (P31645 whole entry): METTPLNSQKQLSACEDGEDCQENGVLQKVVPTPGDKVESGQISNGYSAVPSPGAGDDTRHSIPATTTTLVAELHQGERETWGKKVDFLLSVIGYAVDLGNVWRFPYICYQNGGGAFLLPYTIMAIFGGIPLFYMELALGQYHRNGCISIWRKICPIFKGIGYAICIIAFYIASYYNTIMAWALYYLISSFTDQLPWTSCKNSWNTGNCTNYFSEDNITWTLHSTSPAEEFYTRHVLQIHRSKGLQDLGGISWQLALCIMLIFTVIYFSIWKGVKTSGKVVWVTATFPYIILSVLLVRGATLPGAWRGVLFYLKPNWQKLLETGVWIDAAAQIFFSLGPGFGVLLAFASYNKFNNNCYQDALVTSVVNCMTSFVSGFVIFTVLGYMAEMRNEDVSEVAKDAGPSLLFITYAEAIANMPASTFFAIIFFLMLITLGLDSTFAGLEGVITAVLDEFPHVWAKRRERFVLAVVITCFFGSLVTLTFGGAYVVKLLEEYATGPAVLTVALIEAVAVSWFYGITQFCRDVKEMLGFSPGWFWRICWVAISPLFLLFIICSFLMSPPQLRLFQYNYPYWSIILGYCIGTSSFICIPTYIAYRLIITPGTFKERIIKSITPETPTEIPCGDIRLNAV
# Sequence of μ-opioid (P35372 whole entry): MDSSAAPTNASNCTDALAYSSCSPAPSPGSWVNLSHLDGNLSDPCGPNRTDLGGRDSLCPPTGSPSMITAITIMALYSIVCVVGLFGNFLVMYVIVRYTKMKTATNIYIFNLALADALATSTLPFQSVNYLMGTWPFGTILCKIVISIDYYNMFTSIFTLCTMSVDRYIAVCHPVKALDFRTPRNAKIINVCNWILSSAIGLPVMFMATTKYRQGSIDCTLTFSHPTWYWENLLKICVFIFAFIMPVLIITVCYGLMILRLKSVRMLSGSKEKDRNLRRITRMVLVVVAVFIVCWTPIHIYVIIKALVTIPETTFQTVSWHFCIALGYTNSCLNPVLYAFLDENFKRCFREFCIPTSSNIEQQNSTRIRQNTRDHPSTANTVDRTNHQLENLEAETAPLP
compound,measurement,setting,value
"COc1cccc(C2(O)CCCCC2CN(C)C)c1 (racemic) [(±) Tramadol, (+/−)-trans(RR,SS)-2-[(di-methylamino)methyl]-1-(3-methoxyphenyl)cyclohexanol]",pKi,[1],4.24
same,duration of the analgesic effect,[2],about 6 hours
same,reduction in pain,[3],30-40%
same,pKi,[4],4.37
same,pKi,[5]; [23],6.11
CN(C)CCC=C1c2ccccc2CCc2ccccc21 [amitriptyline],patients with good or moderate response,[6]; painful diabetic neuropathy,three-quarters
same,patients with good or moderate response,[6]; postherpetic neuralgia,about two-thirds
CN(C)CCCN1c2ccccc2CCc2ccccc21 [imipramine],pIC50,[7],~5.22
CC(C)C[C@H](CN)CC(=O)O [pregabalin],patients discontinued prematurely due to adverse reactions,[8]; 150-600 mg/day,19%
same,discontinuation due to dizziness,[8],6%
same,discontinuation due to somnolence,[8],3%
same,"withdrawal due to fatigue, headache, balance disorder, and weight increased, each",[8],approximately 1%
same,endpoint mean pain score (proportion with at least 50% reduction in pain score increased),"[9]; 8-week study, 50 and 100 mg three times a day vs placebo",statistically significantly improved
same,endpoint mean pain score (proportion with at least 50% reduction in pain score increased),"[9]; 8-week study, 100 or 200 mg three times a day vs placebo, by creatinine clearance",statistically significantly improved
same,endpoint mean pain score (proportion with at least 50% reduction in pain score increased),"[9]; 13-week study, 75, 150, 300 mg twice daily vs placebo, creatinine clearance greater than 60 mL/min, all doses",statistically significantly improved
same,endpoint mean pain score (proportion with at least 50% reduction in pain score increased),[9]; 100 and 200 mg three times a day,statistically significantly improved
same,discontinuation due to dizziness,[10],3%
same,discontinuation due to somnolence,[10],2%
same,patients discontinued prematurely due to adverse reactions,[10],9%
same,"withdrawal due to asthenia, confusion, and peripheral edema, each",[10],approximately 1%
CCN(CC)C(=O)C1(c2ccccc2)CC1CN (centres unmarked) [Milnacipran],"affinity for α or β adrenergic, muscarinic, histaminergic, and dopaminergic receptors",[11],no affinity
same,uptake of dopamine,[12],does not affect
same,pKi,[13]; [24],5.20
O-desmethyltramadol [(±) M1],pKi,[4],6.62
same,pKi,[13]; [24],< 4.80
same,pKi,[5]; [23],5.82
CN1CC[C@@]23CCCC[C@@H]2[C@@H]1Cc1ccc(O)cc13 [Dextrorphan],pKi,[1],4.46
same,pKi,[14]; reuptake inhibition,6.40
same,pKi,[4],5.23
same,pKi,[5]; [25],6.47
NCC1(CC(=O)O)CCCCC1 [Gabapentin],"cellular uptake of dopamine, noradrenaline, or serotonin",[15],did not alter
same,Bioavailability,[16]; 900 mg/day given in 3 divided doses,approximately 60%
same,Bioavailability,[16]; 1200 mg/day given in 3 divided doses,~47%
same,Bioavailability,[16]; 2400 mg/day given in 3 divided doses,~34%
same,Bioavailability,[16]; 3600 mg/day given in 3 divided doses,~33%
same,Bioavailability,[16]; 4800 mg/day given in 3 divided doses,~27%
same,apparent volume of distribution,"[16]; after 150 mg intravenous administration, Mean±SD",58 ± 6 L
same,increase in AUC and Cmax with food,[16]; food effect,14%
same,bound to plasma protein,[16]; in vivo,Less than 3%
same,metabolism in humans,[16]; in vivo,not appreciably metabolized
same,"steady-state predose (Cmin) concentration in cerebrospinal fluid, of corresponding plasma concentration",[16]; patients with epilepsy,approximately 20%
same,elimination half-life,[16]; unaltered by dose or multiple dosing,5 to 7 h
same,pKi,[17],7.23
CN1CC[C@]23CCCC[C@H]2[C@H]1Cc1ccc(O)cc13 [Levorphanol],pKi,[1],8.44
same,pKi,[14],7.06
same,pKi,[4],8.38
same,pKi,[5]; [25],5.92
"COc1ccc(C(CN(C)C)C2(O)CCCCC2)cc1 (racemic) [Venlafaxine, (R/S)-1-[2-(dimethylamino)-1-(4-methoxyphenyl)ethyl]cyclohexanol]",reversing chronic neuropathic pain secondary to thermal hyperalgesia; hyperalgesia of neuropathic pain,[18],effective
"COc1ccc2c(c1)[C@@]13CCCC[C@H]1[C@@H](C2)N(C)CC3 [Dextromethorphan, (+)-3-methoxy-N-methylmorphinan]",pKi,[19],5.89
same,pKi,[1],4.94
same,pKi,[20],6.44
same,pKi,[13]; [24],5.54
N[C@@H](Cc1c[nH]c2ccccc12)C(=O)O [tryptophan],effect on post-operative pain or on the consumption of other analgesics,[21],no effect
[Mg] [magnesium],use of narcotics in postoperative patients,[22],reduced the use of narcotics
